# Measurements published in US20120196899A1, “METHODS AND PRODUCTS FOR TREATING INFLAMMATION” (Rock Creek Pharmaceuticals, Inc., priority 2010, published 2012).
# “Also recorded” adds a separate entry of the source.
# Assay: Single i.v. dose toxicity with 14-day observation: clinical signs and mortality
# Format: in vivo, Sprague-Dawley rats
# Details: nicotine 0.75 mg/kg single i.v.
# Description: Body weight and food consumption was measured daily for 14 days. On day 15, urine was collected on all surviving animals. The animals were euthanized and bled via cardiac puncture, and blood was collected for analysis. Tissues were collected, weighed, evaluated for gross abnormalities, and stored in 10% neutral-buffered formalin.
# Four aliquots of each dose formulation were collected and stored at −80° C.
# The animals were weighed prior to dosing and received a single i.v. dose via the lateral tail vein of either test compound or vehicle at a volume of 5 mL/kg.
compound,measurement,setting,value
"CN1CCCC1c1cccnc1.O=C(O)C(O)C(O)C(=O)O (single isomer, unassigned; (-)) [Nicotine, (−) Nicotine hydrogen tartrate, reference compound]",mortality,"5 males and 5 females, tartrate",One male and two females died post dose; also recorded: one male animal and 2 females died following test compound administration
same,clinical signs after dosing,male and female rats,experienced tremors upon compound administration but returned to normal within 15-20 minutes post dose
